Measured values as given in patent US9274116B2, “Drug selection for breast cancer therapy using antibody-based arrays” (NESTEC S.A., priority 2008, dated 2016).
Values belong to the compound of their own block, whether it stands above or below them.

Tests used:
ER = molecular target: T1, ER (Homo sapiens, UniProt P03372); assay: Tumor cell (CTC/biopsy) pathway profile on antibody array: ER expression; type: in vivo; conditions: Patient 4008 (High AIB1; ER+/PR+/ErbB2−), tumor cells on re-biopsy
T1 construct: pathways active in circulating tumor cells (CTCs) from blood or cancer cells obtained from a needle biopsy; endogenous in cells; host or cells: patient's circulating tumour cells or biopsy-derived breast cancer cells
T1 sequence (P03372 whole entry): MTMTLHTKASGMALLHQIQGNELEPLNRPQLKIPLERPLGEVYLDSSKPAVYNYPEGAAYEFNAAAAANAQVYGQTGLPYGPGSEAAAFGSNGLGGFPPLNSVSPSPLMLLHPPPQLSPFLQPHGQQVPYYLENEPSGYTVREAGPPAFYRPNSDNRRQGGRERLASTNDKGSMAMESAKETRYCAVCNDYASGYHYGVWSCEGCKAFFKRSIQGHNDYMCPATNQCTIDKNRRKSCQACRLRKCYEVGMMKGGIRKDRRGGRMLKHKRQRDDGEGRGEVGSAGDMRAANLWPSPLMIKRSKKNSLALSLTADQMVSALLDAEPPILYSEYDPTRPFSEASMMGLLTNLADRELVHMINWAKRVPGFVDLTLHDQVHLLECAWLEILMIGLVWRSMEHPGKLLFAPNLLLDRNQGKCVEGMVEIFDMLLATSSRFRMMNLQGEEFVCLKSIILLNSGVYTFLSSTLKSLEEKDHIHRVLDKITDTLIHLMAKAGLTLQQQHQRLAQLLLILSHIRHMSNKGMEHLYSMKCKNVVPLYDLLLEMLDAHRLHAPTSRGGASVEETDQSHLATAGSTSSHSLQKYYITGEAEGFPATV
Method: (§1) The incubation was for 2 hours at room temperature. • 5) Alternatively, the detection step utilized a biotin-conjugate of the monoclonal antibody recognizing phosphorylated EGFR. In these instances, after six washes an additional sequential step of incubation with streptavidin-HRP for 1 hour was included. • 6) Alternatively, the detection step utilized an oligonucleotide-mediated glucose oxidase (GO) conjugate of the anti-EGFR antibody.
(§2) In brief, the activation levels of different components of the ErbB and nuclear hormone receptor pathways in CTCs or biopsy-derived cancer cells can be determined in the presence or absence of different combinations of test therapeutic agents.

ER (Ser 118) = molecular target: T2, ER (Ser 118) (Homo sapiens, UniProt P03372); assay: Tumor cell pathway profile: ER (Ser 118) phosphorylation; type: in vivo; conditions: Patient 4008 (High AIB1; ER+/PR+/ErbB2−), tumor cells on re-biopsy
T2 construct: pathways active in circulating tumor cells (CTCs) from blood or cancer cells obtained from a needle biopsy; endogenous in cells; host or cells: patient's circulating tumour cells or biopsy-derived breast cancer cells
T2 sequence (P03372 whole entry): as above
Method: as §1, §2

ER (Ser 167) = molecular target: T3, ER (Ser 167) (Homo sapiens, UniProt P03372); assay: Tumor cell pathway profile: ER (Ser 167) phosphorylation; type: in vivo; conditions: Patient 4008 (High AIB1; ER+/PR+/ErbB2−), tumor cells on re-biopsy
T3 construct: pathways active in circulating tumor cells (CTCs) from blood or cancer cells obtained from a needle biopsy; endogenous in cells; host or cells: patient's circulating tumour cells or biopsy-derived breast cancer cells
T3 sequence (P03372 whole entry): as above
Method: as §1, §2

ER:AIB1 Complex = molecular target: T4, ER:AIB1 Complex (Homo sapiens, UniProt P03372); assay: Tumor cell pathway profile: ER:AIB1 complex; type: in vivo; conditions: Patient 4008 (High AIB1; ER+/PR+/ErbB2−), tumor cells on re-biopsy
T4 construct: pathways active in circulating tumor cells (CTCs) from blood or cancer cells obtained from a needle biopsy; endogenous in cells; host or cells: patient's circulating tumour cells or biopsy-derived breast cancer cells
T4 sequence (P03372 whole entry, one chain of several): as the sequence (P03372 whole entry) above
Method: as §1, §2

ER:N-CoR Complex = molecular target: T5, ER:N-CoR Complex (Homo sapiens, UniProt P03372); assay: Tumor cell pathway profile: ER:N-CoR complex; type: in vivo; conditions: Patient 4008 (High AIB1; ER+/PR+/ErbB2−), tumor cells on re-biopsy
T5 construct: pathways active in circulating tumor cells (CTCs) from blood or cancer cells obtained from a needle biopsy; endogenous in cells; host or cells: patient's circulating tumour cells or biopsy-derived breast cancer cells
Method: as §1, §2

Progesterone Receptor = assay: Tumor cell pathway profile: Progesterone Receptor; type: in vivo, human; conditions: tumor cells on re-biopsy
Method: as §1
(§3) The exemplary patient profiles shown below in Tables 4-22 illustrate how an analysis of the pathways active in circulating tumor cells (CTCs) from blood or cancer cells obtained from a needle biopsy can be used to help physicians decide upon an effective course of treatment for a breast tumor, e.g., neoadjuvant treatment prior to surgery to reduce the size of the breast tumor or treatment in patients with locally recurrent or metastatic breast cancer. In brief, the activation levels of different components of the ErbB and nuclear hormone receptor pathways in CTCs or biopsy-derived cancer cells can be determined in the presence or absence of different combinations of test therapeutic agents.

IGF-1R = assay: Tumor cell pathway profile: IGF-1R; type: in vivo, human; conditions: tumor cells on re-biopsy
Method: as §1, §2

ErbB1 = molecular target: T6, ErbB1 (Homo sapiens, UniProt P00533); assay: Tumor cell pathway profile: ErbB1; type: in vivo; conditions: Patient 4008 (High AIB1; ER+/PR+/ErbB2−), tumor cells on re-biopsy
T6 construct: pathways active in circulating tumor cells (CTCs) from blood or cancer cells obtained from a needle biopsy; endogenous in cells; host or cells: patient's circulating tumour cells or biopsy-derived breast cancer cells
Method: as §1, §2

ErbB2 = molecular target: T7, ErbB2 (Homo sapiens, UniProt P04626); assay: Tumor cell pathway profile: ErbB2; type: in vivo; conditions: tumor cells on re-biopsy
T7 construct: pathways active in circulating tumor cells (CTCs) from blood or cancer cells obtained from a needle biopsy; endogenous in cells; host or cells: patient's circulating tumour cells or biopsy-derived breast cancer cells
T7 sequence (P04626 23-1255): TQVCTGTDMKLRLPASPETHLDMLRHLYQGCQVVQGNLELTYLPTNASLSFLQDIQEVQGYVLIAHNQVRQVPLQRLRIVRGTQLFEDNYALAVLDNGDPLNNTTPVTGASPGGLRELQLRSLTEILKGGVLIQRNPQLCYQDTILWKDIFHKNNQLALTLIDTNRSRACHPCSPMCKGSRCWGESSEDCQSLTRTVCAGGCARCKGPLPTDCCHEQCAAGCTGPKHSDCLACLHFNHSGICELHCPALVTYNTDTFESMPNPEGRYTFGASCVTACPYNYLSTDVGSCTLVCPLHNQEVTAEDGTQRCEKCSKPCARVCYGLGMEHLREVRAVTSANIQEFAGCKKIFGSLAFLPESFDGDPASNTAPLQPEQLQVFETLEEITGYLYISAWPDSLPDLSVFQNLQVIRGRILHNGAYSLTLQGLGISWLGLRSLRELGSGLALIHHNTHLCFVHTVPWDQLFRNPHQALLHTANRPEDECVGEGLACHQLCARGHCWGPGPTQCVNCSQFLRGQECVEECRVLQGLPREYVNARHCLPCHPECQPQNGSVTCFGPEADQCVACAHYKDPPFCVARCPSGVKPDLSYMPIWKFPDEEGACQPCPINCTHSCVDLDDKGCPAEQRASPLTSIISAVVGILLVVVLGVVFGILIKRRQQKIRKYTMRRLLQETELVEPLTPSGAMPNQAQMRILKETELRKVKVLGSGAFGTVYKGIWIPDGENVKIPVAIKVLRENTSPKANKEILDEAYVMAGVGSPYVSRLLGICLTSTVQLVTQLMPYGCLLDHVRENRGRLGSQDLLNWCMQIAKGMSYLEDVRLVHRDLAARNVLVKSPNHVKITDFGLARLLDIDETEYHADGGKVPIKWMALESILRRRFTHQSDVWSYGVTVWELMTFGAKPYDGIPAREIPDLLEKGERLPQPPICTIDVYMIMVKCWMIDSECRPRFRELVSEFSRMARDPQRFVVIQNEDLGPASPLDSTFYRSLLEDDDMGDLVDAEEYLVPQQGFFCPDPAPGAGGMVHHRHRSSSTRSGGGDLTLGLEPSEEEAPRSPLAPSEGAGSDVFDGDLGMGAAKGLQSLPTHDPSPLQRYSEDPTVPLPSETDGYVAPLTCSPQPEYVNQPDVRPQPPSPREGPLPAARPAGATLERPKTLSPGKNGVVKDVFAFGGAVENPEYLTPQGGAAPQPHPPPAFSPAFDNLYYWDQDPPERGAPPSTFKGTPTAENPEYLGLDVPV
Method: as §1, §2

ErbB3 = assay: Tumor cell pathway profile: ErbB3; type: in vivo, human; conditions: tumor cells on re-biopsy
Method: as §1, §3

ErbB4 = molecular target: T8, ErbB4 (Homo sapiens, UniProt Q15303); assay: Tumor cell pathway profile: ErbB4; type: in vivo; conditions: tumor cells on re-biopsy
T8 construct: pathways active in circulating tumor cells (CTCs) from blood or cancer cells obtained from a needle biopsy; endogenous in cells; host or cells: patient's circulating tumour cells or biopsy-derived breast cancer cells
T8 sequence (Q15303 26-1308): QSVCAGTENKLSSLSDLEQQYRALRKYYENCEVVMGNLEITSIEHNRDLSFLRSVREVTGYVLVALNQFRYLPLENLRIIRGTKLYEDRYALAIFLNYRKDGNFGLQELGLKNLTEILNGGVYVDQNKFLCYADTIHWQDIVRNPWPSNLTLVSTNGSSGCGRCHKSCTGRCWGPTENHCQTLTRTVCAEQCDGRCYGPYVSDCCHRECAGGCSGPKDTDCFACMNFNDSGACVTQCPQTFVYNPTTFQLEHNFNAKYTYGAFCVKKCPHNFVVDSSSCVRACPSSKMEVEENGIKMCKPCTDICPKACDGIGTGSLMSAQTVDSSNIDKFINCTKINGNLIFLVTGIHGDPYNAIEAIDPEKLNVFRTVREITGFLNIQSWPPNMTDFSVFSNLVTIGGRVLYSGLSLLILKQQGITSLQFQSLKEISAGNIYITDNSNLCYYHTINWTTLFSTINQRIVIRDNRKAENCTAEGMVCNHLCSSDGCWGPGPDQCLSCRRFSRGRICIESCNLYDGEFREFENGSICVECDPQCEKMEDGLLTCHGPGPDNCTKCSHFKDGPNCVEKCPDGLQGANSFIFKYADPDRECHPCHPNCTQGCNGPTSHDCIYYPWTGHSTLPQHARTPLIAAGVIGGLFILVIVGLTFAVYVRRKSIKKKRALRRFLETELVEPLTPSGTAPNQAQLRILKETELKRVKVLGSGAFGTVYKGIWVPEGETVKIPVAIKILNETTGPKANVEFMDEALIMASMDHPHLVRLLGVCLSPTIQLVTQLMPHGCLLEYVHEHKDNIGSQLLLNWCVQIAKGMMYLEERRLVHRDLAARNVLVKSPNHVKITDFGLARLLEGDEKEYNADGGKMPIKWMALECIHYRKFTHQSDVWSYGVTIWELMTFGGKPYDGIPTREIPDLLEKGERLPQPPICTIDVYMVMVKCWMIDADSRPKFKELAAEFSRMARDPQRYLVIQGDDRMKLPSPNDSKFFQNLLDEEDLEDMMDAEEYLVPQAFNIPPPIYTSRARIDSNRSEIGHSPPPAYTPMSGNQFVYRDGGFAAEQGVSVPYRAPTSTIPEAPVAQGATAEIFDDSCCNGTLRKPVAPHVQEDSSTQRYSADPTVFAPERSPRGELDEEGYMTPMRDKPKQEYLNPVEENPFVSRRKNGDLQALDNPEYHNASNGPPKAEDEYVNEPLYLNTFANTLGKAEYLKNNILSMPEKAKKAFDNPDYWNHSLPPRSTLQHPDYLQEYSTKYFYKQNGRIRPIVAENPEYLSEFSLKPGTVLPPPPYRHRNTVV
Method: as §1, §2

Shc = assay: Tumor cell pathway profile: Shc; type: in vivo, human; conditions: tumor cells on re-biopsy
Method: as §1, §3

PI3K = assay: Tumor cell pathway profile: PI3K; type: in vivo, human; conditions: tumor cells on re-biopsy
Method: as §1, §2

Erk = assay: Tumor cell pathway profile: Erk; type: in vivo, human; conditions: tumor cells on re-biopsy
Method: as §1, §2

Rsk = assay: Tumor cell pathway profile: Rsk; type: in vivo, human; conditions: tumor cells on re-biopsy
Method: as §1, §2

Akt = assay: Tumor cell pathway profile: Akt; type: in vivo, human; conditions: tumor cells on re-biopsy
Method: as §1, §2

P70S6K = assay: Tumor cell pathway profile: P70S6K; type: in vivo, human; conditions: tumor cells on re-biopsy
Method: as §1, §2

Ki67 = assay: Tumor cell pathway profile: Ki67; type: in vivo, human; conditions: tumor cells on re-biopsy
Method: as §1, §3

breast tumor = assay: Response of breast cancer patient to therapy selected from pathway profile; type: in vivo, human
Text: as §3
In brief, the activation levels of different components of signal transduction pathways such as the ErbB receptor pathways in CTCs or biopsy-derived cancer cells can be determined in the presence or absence of different combinations of test therapeutic agents.

PTEN = assay: Tumor cell pathway profile: PTEN; type: in vivo, human; conditions: Patient 4001 (ER+/PR+/ErbB2−), tumor cells on re-biopsy
Method: as §1, §3

TOPO II = assay: Tumor cell pathway profile: TOPO II; type: in vivo, human; conditions: Patient 4001 (ER+/PR+/ErbB2−), tumor cells on re-biopsy
Method: as §1, §3

pHER-1 = molecular target: T9, pHER-1 (Homo sapiens, UniProt P00533); assay: Multiplexed proximity assay, per-cell RTK activation in cell lines: pHER-1; type: cell-based; conditions: stimulation with the ligand, calculated from number of cells required to detect EC20 (12000 RFU)
T9 construct: host or cells: SKBR3, MDA-MB-468, T47D, BT474
Method: Slides were incubated with blocking buffer for 1 hr and then washed 3× with TBST buffer. Cell lysates were then added onto each pad for overnight incubation at room temperature (RT). Upon the completion of the primary binding, lysates were aspirated and then each pad was washed several times with TBST. Then, secondary detector antibodies (conjugated with GO or HRP) were added to each pad for 2 hr at RT. […]
Quantitation was performed using Perkin Elmer ScanArray Express software and the data obtained was corrected for local and global background intensities. […] A nonlinear regression model was used for the quantitation of cell-equivalent amount for corresponding relative fluorescence unit (RFU) values. […]

pHER-2 = assay: Multiplexed proximity assay, per-cell RTK activation in cell lines: pHER-2; type: cell-based; conditions: for Per Cell-RTK Activation (RFU/cell) pHER2: stimulation with the ligand, calculated from number of cells required to detect EC20 (12000 RFU)
Method: SKBR3, MDA-MB-468, T47D, and BT474 cell lines were obtained from ATCC. Cells were grown in the following growth media in 100 mm tissue culture plates at 37° C. in 5% CO2: SKBR3—MacCoy's 5A medium with 10% FBS; MDA-MB-468—DMEM, 10% FBS; BT474—DMEM, 10% FBS; T47D—RPMI 1640, 10% FBS, 0.2 U/ml bovine insulin. Cells were harvested at 70-80% confluency with gentle detachment process (trypsin treatment+subsequent inactivation) and were subsequently counted and washed with 1×PBS. […] Subsequently, stimulated cells were washed with 1×PBS and then were lysed and kept on ice for 30 min.
Capture antibodies were diluted in 1×PBS with detergent. A contact microarray printer (Genetix) was utilized to print on 16 pad nitrocellulose FAST slides (Whatman). The spot diameter was approximately 175 μm and printed slides were kept in a desiccated chamber at 4° C.
Slides were incubated with blocking buffer for 1 hr and then washed 3× with TBST buffer. Cell lysates were then added onto each pad for overnight incubation at room temperature (RT). Upon the completion of the primary binding, lysates were aspirated and then each pad was washed several times with TBST. Then, secondary detector antibodies (conjugated with GO or HRP) were added to each pad for 2 hr at RT. Unbound secondary detector antibodies were removed by washing with TBST, and signal amplification buffer containing glucose and biotinylated tyramide was added to each pad for 15 min. After removing excess biotinylated tyramide, Alexa-647 conjugated strepavidin was added for the signal detection.
Quantitation was performed using Perkin Elmer ScanArray Express software and the data obtained was corrected for local and global background intensities. A GenePixArray List (GAL) file was used to provide descriptive name and identifier information and was incorporated into the image analysis output file. Signals from triplicate spots were averaged and data were normalized to correct for pad to pad variability. A nonlinear regression model was used for the quantitation of cell-equivalent amount for corresponding relative fluorescence unit (RFU) values. The data were fit to a five parameter Hill equation to generate the standard curves. Each curve was validated against known controls. A known number of cells was predicted for the appropriate dilution, corresponding to the curve with the highest slope at the intensity of the unknown sample.
Analytical specificity of the collaborative immunoassay format described herein was >99.99% based on a comparative study performed on multiple cell lines with various RTK levels. […] The RTK activation profile for T47D cells, which express some level of ErbB2 and ErbB3 but an extremely low amount of ErbB1, is shown in FIG. 22. The number of cells required to detect EC20 (12000 RFU) pHER-1 or pHER-2 were used to calculate per-cell RTK activation (RFU/cell) as shown in Table 43. When MB468 cells expressing an extremely low amount of HER-2 were used, having ˜1000 cells per reaction pad was not sufficient to achieve EC20, and this type of low or non-detectable signal in other cell lines was indicated as “ND” in Table 43. […] This collaborative immunoassay format ensures ultra-specificity while maintaining its sub-single cell level (10^4 to 10^5) molecular level assay sensitivity.

p95ErbB2 = conditions: T47D cells, FIG. 17
Method: The slide is incubated for two hours at room temperature. • 4) After six washes with TBS-Tween, 80 μl of detection antibodies for the proximity assay diluted in TBS-Tween/2% BSA/1% FBS is added to the slides. The detection antibodies used are: (1) an anti-ErbB2 antibody specific for the intracellular domain of ErbB2 that is directly conjugated to glucose oxidase (GO); and (2) a monoclonal antibody recognizing phosphorylated ErbB2 that is directly conjugated to horseradish peroxidase (HRP). The incubation is for 2 hours at room temperature. • 5) For signal amplification, 80 μl of biotin-tyramide at 5 μg/ml is added and reacted for 15 minutes along with 50 mM glucose. The slide is washed six times with TBS-Tween, twice with 20% DMSO/TBS-Tween, and once with TBS. […] The slide is then washed twice, dried for 5 minutes, and scanned on a microarray scanner (Perkin-Elmer, Inc.). • 6) As a non-limiting example, slide 1 can report on total ErbB2 activation while slide 2 can report on truncated ErbB2 activation.
The slide is incubated for two hours at room temperature. • 4) After six washes with TBS-Tween, 80 μl of detection antibodies for the assay diluted in TBS-Tween/2% BSA/1% FBS is added to the slides. The detection antibody used is an anti-ErbB2 antibody specific for the intracellular domain of ErbB2 that is directly conjugated to HRP. […]

[1] = Patient 4008 (High AIB1; ER+/PR+/ErbB2−)

- ER: Treatment with Fulvestrant (ER): Low
- ER (Ser 118): Treatment with Fulvestrant (ER (Ser 118)): Weak
- ER (Ser 167): Treatment with Fulvestrant (ER (Ser 167)): Weak
- ER: AIB1 Complex: Treatment with Fulvestrant (ER:AIB1 Complex): Weak
- ER: N-CoR Complex: Treatment with Fulvestrant (ER:N-CoR Complex): Weak
- ErbB1: Treatment with Fulvestrant (ErbB1): Weak
- ErbB2: Treatment with Fulvestrant (ErbB2; [1]): Weak
- ErbB4: Treatment with Fulvestrant (ErbB4; [1]): Weak
Compound: C[C@]12CC[C@@H]3c4ccc(O)cc4C[C@@H](CCCCCCCCC[S+]([O-])CCCC(F)(F)C(F)(F)F)[C@H]3[C@@H]1CC[C@@H]2O (some centres unmarked) [Fulvestrant, fulvestrant]
- Progesterone Receptor: Treatment with Fulvestrant (Progesterone Receptor; [1]): Low
- IGF-1R: Treatment with Fulvestrant (IGF-1R; [1]): Weak
- ErbB3: Treatment with Fulvestrant (ErbB3; [1]): Weak
- Shc: Treatment with Fulvestrant (Shc; [1]): Weak
- PI3K: Treatment with Fulvestrant (PI3K; [1]): Weak
- Erk: Treatment with Fulvestrant (Erk; [1]): Weak
- Rsk: Treatment with Fulvestrant (Rsk; [1]): Weak
- Akt: Treatment with Fulvestrant (Akt; [1]): Weak
- P70S6K: Treatment with Fulvestrant (P70S6K; [1]): Weak
- Ki67: Treatment with Fulvestrant (Ki67; [1]): Weak
- Patient response to treatment (breast tumor; [1]): responded

Compound: CC/C(=C(\c1ccccc1)c1ccc(OCCN(C)C)cc1)c1ccccc1 [Tamoxifen, tamoxifen]
- Progesterone Receptor: Treatment with Tamoxifen (Progesterone Receptor; Patient 4001 (ER+/PR+/ErbB2−)): Medium
- IGF-1R: Treatment with Tamoxifen (IGF-1R; Patient 4001 (ER+/PR+/ErbB2−)): Weak
- ErbB2: Treatment with Tamoxifen (ErbB2; Patient 4001 (ER+/PR+/ErbB2−)): Weak
- ErbB3: Treatment with Tamoxifen (ErbB3; Patient 4001 (ER+/PR+/ErbB2−)): Weak
- ErbB4: Treatment with Tamoxifen (ErbB4; Patient 4001 (ER+/PR+/ErbB2−)): Weak
- PTEN: Treatment with Tamoxifen (PTEN): Medium
- Shc: Treatment with Tamoxifen (Shc; Patient 4001 (ER+/PR+/ErbB2−)): Weak
- PI3K: Treatment with Tamoxifen (PI3K; Patient 4001 (ER+/PR+/ErbB2−)): Weak
- Erk: Treatment with Tamoxifen (Erk; Patient 4001 (ER+/PR+/ErbB2−)): Weak
- Rsk: Treatment with Tamoxifen (Rsk; Patient 4001 (ER+/PR+/ErbB2−)): Weak
- Akt: Treatment with Tamoxifen (Akt; Patient 4001 (ER+/PR+/ErbB2−)): Weak
- P70S6K: Treatment with Tamoxifen (P70S6K; Patient 4001 (ER+/PR+/ErbB2−)): Weak
- Ki67: Treatment with Tamoxifen (Ki67; Patient 4001 (ER+/PR+/ErbB2−)): Weak
- TOPO II: Treatment with Tamoxifen (TOPO II): Medium
- Patient response to treatment (breast tumor; Patient 4001 (ER+/PR+/ErbB2−), premenopausal, node negative): responded

- Per Cell-RTK Activation (RFU/cell) pHER1 (pHER-1; MD AMB 468 cells): 4000 RFU/cell
- Per Cell-RTK Activation (RFU/cell) pHER1 (pHER-1; SKBR3 cells): 105 RFU/cell
Compound: heregulin
- Per Cell-RTK Activation (RFU/cell) pHER2 (pHER-2; BT 474 cells): 1200 RFU/cell
- Per Cell-RTK Activation (RFU/cell) pHER2 (pHER-2; SKBR3 cells): 353 RFU/cell
- Per Cell-RTK Activation (RFU/cell) pHER2 (pHER-2; T47D cells): 165 RFU/cell
- p95ErbB2 phosphorylation (p95ErbB2): increased

Compound: EGF: epidermal growth factor, stimulatory growth factor
- Per Cell-RTK Activation (RFU/cell) pHER2 (pHER-2; BT 474 cells): 1200 RFU/cell
- pHER-2 (pHER-2; MDA MB 468 cells stimulated with EGF): do not show any detectable
- Per Cell-RTK Activation (RFU/cell) pHER2 (pHER-2; SKBR3 cells): 1334 RFU/cell
- Per Cell-RTK Activation (RFU/cell) pHER2 (pHER-2; T47D cells): 80 RFU/cell
